Results taken from PubChem BioAssay (NCI).
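Growth conditions: 96-well plates. Treatment: test compound, 48 hours, 5 concentrations. Analysis: linear interpolation between bracketing concentrations; unreached endpoints set to highest concentration. GI50 is the concentration that inhibits growth by half. TGI: total growth inhibition.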

Assays:
Assay in all cases: DTP human tumour cell line panel, 48 h
TK-10 renal = test system: TK-10 renal
SK-MEL-5 melanoma = test system: SK-MEL-5 melanoma
ACHN renal = test system: ACHN renal
LOX IMVI melanoma = test system: LOX IMVI melanoma
OVCAR-5 ovarian = test system: OVCAR-5 ovarian
HOP-62 NSCLC = test system: HOP-62 NSCLC
NCI-H226 lung = test system: NCI-H226 lung
UO-31 renal = test system: UO-31 renal
UACC-257 melanoma = test system: UACC-257 melanoma
HS 578T breast = test system: HS 578T breast
NCI/ADR-RES ovarian = test system: NCI/ADR-RES ovarian
EKVX NSCLC = test system: EKVX NSCLC
U251 CNS = test system: U251 CNS
RXF 393 renal = test system: RXF 393 renal
MDA-MB-231 breast = test system: MDA-MB-231 breast
SW-620 colon = test system: SW-620 colon
SN12C renal = test system: SN12C renal
IGROV1 ovarian = test system: IGROV1 ovarian
T-47D breast = test system: T-47D breast
A549 NSCLC = test system: A549 NSCLC
SNB-75 CNS = test system: SNB-75 CNS
SK-MEL-28 melanoma = test system: SK-MEL-28 melanoma
CCRF-CEM leukemia = test system: CCRF-CEM leukemia
OVCAR-4 ovarian = test system: OVCAR-4 ovarian
CAKI-1 renal = test system: CAKI-1 renal
A498 renal = test system: A498 renal
OVCAR-8 ovarian = test system: OVCAR-8 ovarian
HT29 colon = test system: HT29 colon

## CCC(=C/[C@H](C)C/C=C/C(C)=C/[C@@H](C)C(=O)[C@@H](C)[C@H](O)[C@@H](C)CC)/C=C/[C@H]1OC(=O)C=C[C@H]1C
TK-10 renal
  GI50: < 10 nM
  TGI: 1520 nM
SK-MEL-5 melanoma
  GI50: < 10 nM
  TGI: 43.7 nM
ACHN renal
  GI50: < 10 nM
  TGI: 1370 nM
LOX IMVI melanoma
  GI50: < 10 nM
  TGI: 1110 nM
OVCAR-5 ovarian
  GI50: < 10 nM
  TGI: 1350 nM
HOP-62 NSCLC
  GI50: < 10 nM
  TGI: 1130 nM
NCI-H226 lung
  GI50: < 10 nM
  TGI: 598 nM
UO-31 renal
  GI50: < 10 nM
  TGI: 1150 nM
UACC-257 melanoma
  GI50: < 10 nM
  TGI: 1550 nM
HS 578T breast
  GI50: < 10 nM
  TGI: 438 nM
NCI/ADR-RES ovarian
  GI50: < 10 nM
  TGI: 1390 nM
EKVX NSCLC
  GI50: 288 nM
  TGI: 11600 nM
U251 CNS
  GI50: < 10 nM
  TGI: 1350 nM
RXF 393 renal
  GI50: < 10 nM
  TGI: < 10 nM
MDA-MB-231 breast
  GI50: < 10 nM
  TGI: 1500 nM
SW-620 colon
  GI50: < 10 nM
  TGI: 1900 nM
SN12C renal
  GI50: < 10 nM
  TGI: 1360 nM
IGROV1 ovarian
  GI50: < 10 nM
  TGI: 1270 nM
T-47D breast
  GI50: < 10 nM
  TGI: 880 nM
A549 NSCLC
  GI50: < 10 nM
  TGI: 1930 nM
SNB-75 CNS
  GI50: < 10 nM
  TGI: 85.4 nM
SK-MEL-28 melanoma
  GI50: < 10 nM
  TGI: 1110 nM
CCRF-CEM leukemia
  GI50: < 10 nM
  TGI: 9070 nM
OVCAR-4 ovarian
  GI50: < 10 nM
  TGI: 1290 nM
CAKI-1 renal
  GI50: < 10 nM
  TGI: 1800 nM
A498 renal
  GI50: < 10 nM
  TGI: < 24 nM
OVCAR-8 ovarian
  GI50: < 10 nM
  TGI: 1270 nM
HT29 colon
  GI50: < 10 nM
